Experimental data taken from US20120010229A1, “THERAPEUTIC REGIMENS FOR HEDGEHOG-ASSOCIATED CANCERS” (priority 2010, published 2012).

What was measured:
wild type human SMO = biological target: T1, wild type human SMO (Homo sapiens, UniProt Q99835); assay: Gli-luciferase reporter assay, C3H10T1/2 cells transfected with wild type SMO; type: cell-based, mouse
T1 construct: host or cells: C3H10T1/2 cells (ATCC CCL-226), mouse
Experimental: Wild type human SMO was subcloned into pcDNA3.1 from an expression construct in pCMV6 (Origene #SC122724). D473H SMO was then generated by site-directed mutagenesis using the Stratagene QuikChange kit (Agilent #200519) and sequence verified.
Gli-Luciferase reporter assays were performed as described. (Yauch et al. (2009) Science 326: 572-574) Briefly, C3H10 T1/2 cells (ATCC, #CCL-226) were plated in six-well plates at 1×10 to 5th cells per well in BME (Gibco #21010) with 10% FBS (Hyclone #SH30070.03), 2 mM Glutamine (Gibco #25030) and 50 units penicillin/50 ug streptomycin (Gibco #15140). The next morning, cells were transfected with 400 ng SMO expression construct, 400 ng 8× Gli-Luc, and 200 ng pRL-TK per well with GeneJuice transfection reagent (Novagen #70967). Cells in each well were lifted six hours later and replated into four wells of a 12 well plate and allowed to attach overnight. Medium was then changed to low (0.5%) serum and compounds were added in quadruplicate in a range of concentrations. After a 48 hour incubation, firefly and renilla luciferase were assayed using the Promega Dual-Glo Luciferase Assay System (Promega #E2940) and ratios were used to determine percent of control using Prism graphing software.

[1] = in vivo, cited from earlier work
[2] = tested on: human cell lines derived from patients with cancer; conditions: pancreatic cancer, medulloblastoma, lung cancer, multiple myeloma, leukemia, lymphoma lines; cited from earlier work
[3] = tested on: Ptc^C/C medulloblastoma flank allografts; assay: Ptc^C/C medulloblastoma flank allografts (tumor take and response); type: in vivo, mouse
Experimental: Animal experiments were performed in accordance with the NIH Guide for the Care and Use of Experimental Animals with approval from the Institutional Animal Care and Use Committee. Freshly excised medulloblastoma tumors from symptomatic Ptc^C/C mice were placed in cooled phosphate buffered saline (PBS), minced with a scalpel, and filtered through a 100 μm cell strainer (BD Bioscience, San Jose, Calif.). The cells were pelleted at 1000 rpm for 5 minutes at 4° C., and resuspended in equal parts DMEM and Matrigel (BD Biosciences, San Diego, Calif.). Recipient mice (wild type littermates) were anesthetized with isoflurane and a suspension of 1×10^6 cells in total volume of 200 μL was injected subcutaneously into the flank using a 30G needle. Tumor growth was measured in two dimensions using digital calipers every 24-48 hours, and the tumor volumes were calculated according to the following formula: 0.5×length×width^2, with width being the smaller of the two dimensions measured. Tumors greater than 2.5 cm in length were harvested and either snap-frozen or fixed in 10% formalin.
To confirm this, aliquots of 1 million cells from the cerebellar tumors of 9 donor Ptc^C/C mice were transplanted to the flanks of 110 recipients.
Recipient mice bearing drug-naïve and IPI-926 treated allograft tumors were then treated with daily IPI-926 (20 mg/kg) and tumor growth was monitored via caliper measurements. […] When tumor volumes reached […], recipient mice then received either daily IPI-926 (20 mg/kg) or vehicle treatment, and the growth of flank allografts was monitored over a nine-week period. […] Half of the allograft mice from drug-treated donors were taken off drug after five weeks of IPI-926 treatment, and the other half received continuous IPI-926 for the nine-week study period. Mice from both groups were monitored for the entire 9-week period.

Pgp/ABCB1 and BCRP = conditions: mouse, not told
Phase 1 clinical trial = type: in vivo

T1 sequence (Q99835 28-787): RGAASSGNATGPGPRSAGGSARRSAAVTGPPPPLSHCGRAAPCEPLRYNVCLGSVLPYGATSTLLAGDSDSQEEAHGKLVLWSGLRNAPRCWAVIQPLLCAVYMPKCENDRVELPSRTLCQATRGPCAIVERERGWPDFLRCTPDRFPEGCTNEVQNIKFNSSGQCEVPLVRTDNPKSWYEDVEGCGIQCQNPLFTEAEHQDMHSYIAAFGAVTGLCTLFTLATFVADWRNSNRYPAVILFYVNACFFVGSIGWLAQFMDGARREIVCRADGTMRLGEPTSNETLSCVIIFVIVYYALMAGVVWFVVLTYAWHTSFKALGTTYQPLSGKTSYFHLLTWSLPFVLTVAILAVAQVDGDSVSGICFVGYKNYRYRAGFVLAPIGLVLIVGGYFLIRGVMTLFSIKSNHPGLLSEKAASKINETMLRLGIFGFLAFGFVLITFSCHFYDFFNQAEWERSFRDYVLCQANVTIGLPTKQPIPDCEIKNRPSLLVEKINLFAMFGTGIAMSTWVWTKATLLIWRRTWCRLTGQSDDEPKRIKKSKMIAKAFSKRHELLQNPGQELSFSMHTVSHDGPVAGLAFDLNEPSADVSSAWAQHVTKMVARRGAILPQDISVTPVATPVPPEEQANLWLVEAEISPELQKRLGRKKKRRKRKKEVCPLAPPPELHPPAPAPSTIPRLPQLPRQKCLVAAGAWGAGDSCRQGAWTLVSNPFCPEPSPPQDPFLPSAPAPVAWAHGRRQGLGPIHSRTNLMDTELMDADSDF

## CC1=C2C[C@H]3[C@@H](CC[C@@H]4C[C@H](NS(C)(=O)=O)CC[C@@]43C)[C@@H]2CC[C@@]2(C1)O[C@@H]1C[C@H](C)CN[C@H]1[C@H]2C [IPI-926]
Wild type human SMO
  IC50: 9 nM
[1]; po
  oral bioavailability: orally bioavailable
[1]
  duration of action: long duration of action
  plasma half-life: long plasma half-life
[2]
  in vitro growth of human cancer cell lines: inhibit in vitro growth
[3]; allografts from drug-treated donors, continuous IPI-926 for nine weeks
  tumor re-growth on continuous IPI-926: no tumors re-grew
[3]; allografts from drug-treated donors, off drug after five weeks, monitored 9 weeks
  tumors that re-grew after going off drug: 1 of 6
[3]; daily IP 20 mg/kg, both allograft groups (drug-naive and IPI-926 treated donors)
  allograft tumors undetectable by caliper measurements: 100%
[3]; donors treated daily 20 mg/kg for 6 weeks before transplantation, drug-naive donors 40 of the 110, P=0.017
  flank tumor take in recipients (tumor initiating capacity): 9 of 51
[3]; flank allografts from drug-naive donors, 9-week trial
  tumors that progressed while on therapy: Forty percent
Pgp/ABCB1 and BCRP
  Pgp protein expression (IHC): focal increases in Pgp
  expression level of BCRP (Western blot): not significantly increased
  expression level of Pgp (Western blot): not significantly increased
Phase 1 clinical trial
  clinical activity: demonstrated clinical activity
  tolerability: well-tolerated
